Results taken from US9278940B2, “Cyclic amines as bromodomain inhibitors” (Zenith Epigenetics Corp., priority 2012, dated 2016).
Counter-ions that a name gives are not always drawn.

How the values were obtained:
Human AML MV-4-11 cells = assay: Inhibition of cell proliferation in MV4-11 cells; format: cell-based; parameters: key: Active: Compounds with an IC50 value less than 30 μM are deemed to be active.; Not Active: Compounds with an IC50 value less than 30 μM are deemed to be active; details: 72 hours
Outline: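 Exponentially growing MV-4-11 cells were treated immediately with two-fold compound dilutions from 30 µM to 0.2 µM in triplicate for 72 h at 37 °C. Viability was read by MTS (CellTiter Aqueous One) absorbance at 490 nm after 3-4 h; % proliferation vs DMSO gave IC50.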

c-myc = assay: Inhibition of c-myc expression (mRNA, real-time PCR) in MV4-11 cells; format: cell-based; parameters: key: Active: Compounds with an IC50 value less than 30 μM were deemed to be active.; Not Active: Compounds with an IC50 value less than 30 μM were deemed to be active; details: Human AML MV4-11 cells, 3 hours
Outline: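 MV4-11 cells (2.5×10^4) exposed to compound or 0.1% DMSO for 3 h at 37° C, then lysed for mRNA isolation. c-myc and cyclophilin cDNAs co-amplified by duplex RT real-time PCR. IC50 from dose-response curve.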

Brd4 bromodomain 1 = target: T1, Brd4 bromodomain 1 (Homo sapiens, UniProt O60885); assay: Inhibition of tetra-acetylated histone H4 binding to BET bromodomain (TR-FRET); parameters: key: Active: Compounds with an IC50 value less than 30 μM were deemed to be active.; Not Active: Compounds with an IC50 value less than 30 μM were deemed to be active; details: Brd4 bromodomain 1, tetra-acetylated histone H4 peptide
T1 construct: made in house; host or cells: E. coli BL21(DE3)
Outline: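 N-terminally His-tagged bromodomain (200 nM, E. coli-expressed, Ni affinity and SEC purified) with biotinylated tetra-acetylated H4 peptide (25-50 nM), Eu-cryptate streptavidin and XL665 anti-His; 2 h at room temperature in HEPES pH 7.4/KF buffer, 0.2% DMSO. The 665/620 nm ratio decrease gave IC50 from dose-response curves.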

[1] = In vivo efficacy in experimental autoimmune encephalomyelitis (EAE) model of MS; parameters: species or system mouse; details: female C57Bl/6 mice, MOG35-55/CFA and pertussis toxin, 28 day preventative model
Text: Experimental autoimmune encephalomyelitis (EAE) is a T-cell-mediated autoimmune disease of the CNS which shares many clinical and histopathological features with human multiple sclerosis (MS). EAE is the most commonly used animal model of MS. […] Cytokines IL-23, IL-6 and IL-17, which are either critical for Th1 and Th17 differentiation or produced by these T cells, play a critical and non-redundant role in EAE development. Therefore, drugs targeting production of these cytokines are likely to have therapeutic potential in treatment of MS.
This study was conducted to assess the potential anti-inflammatory effect of test compounds to inhibit the inflammation and clinical EAE scores of a 28 day preventative mouse model. In this model, EAE was induced by MOG35-55/CFA immunization and pertussis toxin injection in female C57Bl/6 mice.

hMCP-1 mRNA = assay: Inhibition of hMCP-1 mRNA transcription in human PBMCs; format: cell-based; parameters: key: Active: Compounds with an IC50 value less than 30 μM are deemed to be active.; Not Active: Compounds with an IC50 value less than 30 μM are deemed to be active; details: Human Peripheral Blood Mononuclear Cells, 3 h
Experimental: In this example, hMCP-1 mRNA in human peripheral blood mononuclear cells was quantitated to measure the transcriptional inhibition of hMCP-1 when treated with a compound of the present disclosure.
Human Peripheral Blood Mononuclear Cells were plated (1.0×10^5 cells per well) in a 96-well plate in 45 μL RPMI-1640 containing 10% FBS and penicillin/streptomycin. The cells were treated with the test compound (45 μL at 2× concentration), and then the cells were incubated at 37° C. for 3 h before the cells were harvested. At time of harvest, cells were transferred to V-bottom plates and centrifuged at 800 rpm for 5 minutes. Spent media was removed and cell lysis solution (70 μL) was added the cells in each well and incubated for 5-10 min at room temperature, to allow for complete cell lysis and detachment. mRNA was then prepared using the “mRNA Catcher PLUS plate” (Invitrogen), according to the protocol supplied. After the last wash, as much wash buffer as possible was aspirated without allowing the wells to dry. […]
The eluted mRNA isolated was then used in a one-step quantitative real-time PCR reaction, using components of the Ultra Sense Kit together with Applied Biosystems primer-probe mixes. Real-time PCR data was analyzed, normalizing the Ct values for hMCP-1 to an internal control, prior to determining the fold induction of each unknown sample, relative to the control.

COc1cc(OC)c2c(=O)[nH]c(-c3cccc(N4CCN(C(C)C)CC4)n3)nc2c1 [Example 17, 2-(6-(4-Isopropylpiperazin-1-yl)pyridin-2-yl)-5,7-dimethoxyquinazolin-4(3H)-one Hydrochloride]
Active: cell proliferation activity (IC50 < 30 μM) (Human AML MV-4-11 cells) | c-myc activity (IC50 < 30 μM) (c-myc) | FRET activity (IC50 < 30 μM) (Brd4 bromodomain 1) | In vivo activity [1] | MCP-1 activity (IC50 < 30 μM) (hMCP-1 mRNA)
